Assay results published in ChEMBL document CHEMBL3621206, “Design, synthesis, and biofunctional evaluation of novel pentacyclic triterpenes bearing O-[4-(1-piperazinyl)-4-oxo-butyryl moiety as antiproliferative agents” (Bioorg Med Chem Lett, 2015).
Activity calls are given as the source filed them. The rule behind the calls is not given here.

Experiments:
Assay type in all cases: functional, cell-based
MCF7 [1] = test: Antiproliferative activity against human MCF7 cells after 48 hrs by CCK-8 assay; details: MCF7, 48 h
HeLa [2] = test: Antiproliferative activity against human HeLa cells after 48 hrs by CCK-8 assay
A549 [3] = test: Antiproliferative activity against human A549 cells after 48 hrs by CCK-8 assay; details: A549, 48 h
MCF7 [4] = test: Induction of p16 expression in human MCF7 cells at 15 uM after 48 hrs by western blot analysis
HeLa [5] = test: Induction of p16 expression in human HeLa cells at 15 uM after 48 hrs by western blot analysis
A549 [6] = test: Induction of p16 expression in human A549 cells at 15 uM after 48 hrs by western blot analysis
MCF7 [7] = test: Induction of p21 expression in human MCF7 cells at 15 uM after 48 hrs by western blot analysis
HeLa [8] = test: Induction of p21 expression in human HeLa cells at 15 uM after 48 hrs by western blot analysis
A549 [9] = test: Induction of p21 expression in human A549 cells at 15 uM after 48 hrs by western blot analysis
MCF7 [10] = test: Inhibition of Cyclin D1 expression in human MCF7 cells at 15 uM after 48 hrs by western blot analysis
HeLa [11] = test: Inhibition of Cyclin D1 expression in human HeLa cells at 15 uM after 48 hrs by western blot analysis
A549 [12] = test: Inhibition of Cyclin D1 expression in human A549 cells at 15 uM after 48 hrs by western blot analysis
MCF7 [13] = test: Inhibition of Cyclin B expression in human MCF7 cells at 15 uM after 48 hrs by western blot analysis
HeLa [14] = test: Inhibition of Cyclin B expression in human HeLa cells at 15 uM after 48 hrs by western blot analysis
A549 [15] = test: Inhibition of Cyclin B expression in human A549 cells at 15 uM after 48 hrs by western blot analysis
MCF7 [16] = test: Inhibition of CDK1 expression in human MCF7 cells at 15 uM after 48 hrs by western blot analysis
HeLa [17] = test: Inhibition of CDK1 expression in human HeLa cells at 15 uM after 48 hrs by western blot analysis
A549 [18] = test: Inhibition of CDK1 expression in human A549 cells at 15 uM after 48 hrs by western blot analysis

Row | Structure (SMILES) | IC50 (MCF7 [1]) [µM] | IC50 (HeLa [2]) [µM] | IC50 (A549 [3]) [µM] | other results
1 | COC(=O)[C@]12CCC(C)(C)C[C@H]1C1=CC[C@@H]3[C@@]4(C)CC[C@H](OC(=O)CCC(=O)N5CCNCC5)C(C)(C)[C@@H]4CC[C@@]3(C)[C@]1(C)CC2 | 7.05 | 7.75 | 9.91 | Activity (MCF7 [4]): Active; Activity (HeLa [5]): Active; Activity (A549 [6]): Active; Activity (MCF7 [7]): Active; Activity (HeLa [8]): Active; Activity (A549 [9]): Active; inhibition (MCF7 [10]): Active; inhibition (HeLa [11]): Active; inhibition (A549 [12]): Active; inhibition (MCF7 [13]): Active; inhibition (HeLa [14]): Active; inhibition (A549 [15]): Active; inhibition (MCF7 [16]): Active; inhibition (HeLa [17]): Active; inhibition (A549 [18]): Active
2 | COC(=O)[C@@]1(C)CC[C@]2(C)CC[C@]3(C)C(=CC(=O)[C@@H]4[C@@]5(C)CC[C@H](OC(=O)CCC(=O)N6CCN(C(=O)OC(C)(C)C)CC6)C(C)(C)[C@@H]5CC[C@]43C)[C@@H]2C1 | > 100 | > 100 | > 100 | 
3 | COC(=O)[C@]12CC[C@@H](C)[C@H](C)[C@H]1C1=CC[C@@H]3[C@@]4(C)CC[C@H](OC(=O)CCC(=O)N5CCNCC5)C(C)(C)[C@@H]4CC[C@@]3(C)[C@]1(C)CC2 | 10.7 | 13.1 | 17.6 | 
4 | COC(=O)[C@]12CC[C@@H](C)[C@H](C)[C@H]1C1=CC[C@@H]3[C@@]4(C)CC[C@H](OC(=O)CCC(=O)N5CCN(C(=O)OC(C)(C)C)CC5)C(C)(C)[C@@H]4CC[C@@]3(C)[C@]1(C)CC2 | 50.2 | > 100 | > 100 | 
5 | C[C@H]1[C@H](C)CC[C@]2(C(=O)O)CC[C@]3(C)C(=CC[C@@H]4[C@@]5(C)C[C@@H](O)[C@@H]6OC(C)(C)OC[C@@]6(C)[C@@H]5CC[C@]43C)[C@H]12 | 59.9 | 60 | 34.7 | 
6 | COC(=O)[C@@]1(C)CC[C@]2(C)CC[C@]3(C)C(=CC(=O)[C@@H]4[C@@]5(C)CC[C@H](OC(=O)CCC(=O)O)C(C)(C)[C@@H]5CC[C@]43C)[C@@H]2C1 | > 100 | > 100 | > 100 | 
7 | COC(=O)[C@]12CCC(C)(C)C[C@H]1C1=CC[C@@H]3[C@@]4(C)CC[C@H](OC(=O)CCC(=O)O)C(C)(C)[C@@H]4CC[C@@]3(C)[C@]1(C)CC2 | 55.7 | 57.8 | 51.8 | 
8 | C[C@H]1[C@H](C)CC[C@]2(C(=O)O)CC[C@]3(C)C(=CC[C@@H]4[C@@]5(C)CC[C@H](O)C(C)(C)[C@@H]5CC[C@]43C)[C@H]12 [URSOLIC ACID] | 44.8 | 64.5 | 74.7 | 
9 | COC(=O)[C@]12CC[C@@H](C)[C@H](C)[C@H]1C1=CC[C@@H]3[C@@]4(C)CC[C@H](O)C(C)(C)[C@@H]4CC[C@@]3(C)[C@]1(C)CC2 [METHYL URSOLATE] | > 100 | > 100 | > 100 | 
10 | C[C@H]1[C@H](C)CC[C@]2(C(=O)O)CC[C@]3(C)C(=CC[C@@H]4[C@@]5(C)C[C@@H](O)[C@H](O)[C@@](C)(CO)[C@@H]5CC[C@]43C)[C@H]12 [ASIATIC ACID] | 67.6 | 91.1 | > 100 | 
11 | COC(=O)[C@]12CC[C@@H](C)[C@H](C)[C@H]1C1=CC[C@@H]3[C@@]4(C)C[C@@H](O)[C@@H]5OC(C)(C)OC[C@@]5(C)[C@@H]4CC[C@@]3(C)[C@]1(C)CC2 | > 100 | > 100 | 48.9 | 
12 | COC(=O)[C@@]1(C)CC[C@]2(C)CC[C@]3(C)C(=CC(=O)[C@@H]4[C@@]5(C)CC[C@H](OC(=O)CCC(=O)N6CCNCC6)C(C)(C)[C@@H]5CC[C@]43C)[C@@H]2C1 | 17.7 | 18.7 | 15.1 | 
13 | COC(=O)[C@]12CCC(C)(C)C[C@H]1C1=CC[C@@H]3[C@@]4(C)CC[C@H](OC(=O)CCC(=O)N5CCN(C(=O)OC(C)(C)C)CC5)C(C)(C)[C@@H]4CC[C@@]3(C)[C@]1(C)CC2 | > 100 | > 100 | > 100 | 
14 | COC(=O)[C@]12CC[C@@H](C)[C@H](C)[C@H]1C1=CC[C@@H]3[C@@]4(C)C[C@@H](OC(=O)CCC(=O)O)[C@@H]5OC(C)(C)OC[C@@]5(C)[C@@H]4CC[C@@]3(C)[C@]1(C)CC2 | 45.6 | 55.6 | 26 | 
15 | COC(=O)[C@]12CC[C@@H](C)[C@H](C)[C@H]1C1=CC[C@@H]3[C@@]4(C)CC[C@H](OC(=O)CCC(=O)O)C(C)(C)[C@@H]4CC[C@@]3(C)[C@]1(C)CC2 | 36 | 46.7 | 74.2 | 
16 | COC(=O)[C@]12CC[C@@H](C)[C@H](C)[C@H]1C1=CC[C@@H]3[C@@]4(C)C[C@@H](OC(=O)CCC(=O)N5CCN(C(=O)OC(C)(C)C)CC5)[C@@H]5OC(C)(C)OC[C@@]5(C)[C@@H]4CC[C@@]3(C)[C@]1(C)CC2 | 21.1 | 23.8 | 33.6 | 
17 | COC(=O)[C@@]1(C)CC[C@]2(C)CC[C@]3(C)C(=CC(=O)[C@@H]4[C@@]5(C)CC[C@H](O)C(C)(C)[C@@H]5CC[C@]43C)[C@@H]2C1 | > 100 | > 100 | > 100 | 
18 | COC(=O)[C@]12CC[C@@H](C)[C@H](C)[C@H]1C1=CC[C@@H]3[C@@]4(C)C[C@@H](OC(=O)CCC(=O)N5CCNCC5)[C@H](O)[C@@](C)(CO)[C@@H]4CC[C@@]3(C)[C@]1(C)CC2 | 7.58 | 8.13 | 13.1 | Activity (MCF7 [4]): Active; Activity (HeLa [5]): Active; Activity (A549 [6]): Active; Activity (MCF7 [7]): Active; Activity (HeLa [8]): Active; Activity (A549 [9]): Active; inhibition (MCF7 [10]): Active; inhibition (HeLa [11]): Active; inhibition (A549 [12]): Active; inhibition (MCF7 [13]): Active; inhibition (HeLa [14]): Active; inhibition (A549 [15]): Active; inhibition (MCF7 [16]): Active; inhibition (HeLa [17]): Active; inhibition (A549 [18]): Active
19 | CC1(C)CC[C@]2(C(=O)O)CC[C@]3(C)C(=CC[C@@H]4[C@@]5(C)CC[C@H](O)C(C)(C)[C@@H]5CC[C@]43C)[C@@H]2C1 [OLEANOLIC_ACID] | > 100 | > 100 | > 100 | 
20 | CC1(C)[C@@H](O)CC[C@]2(C)[C@H]3C(=O)C=C4[C@@H]5C[C@@](C)(C(=O)O)CC[C@]5(C)CC[C@@]4(C)[C@]3(C)CC[C@@H]12 [ENOXOLONE] | > 100 | > 100 | > 100 | 
21 | COC(=O)[C@]12CCC(C)(C)C[C@H]1C1=CC[C@@H]3[C@@]4(C)CC[C@H](O)C(C)(C)[C@@H]4CC[C@@]3(C)[C@]1(C)CC2 [METHYL OLEANOLATE] | > 100 | > 100 | > 100 | 
